According to article PMC4980837 (Archiv der Pharmazie, 2013):
Where two headings read alike, the source gives them in different places.

Tests used:
recombinant human PDE5 = recombinant human PDE5 (Homo sapiens, UniProt O76074); experiment: PDE5 inhibition, IMAP FP phosphodiesterase assay; format: biochemical; settings: for inhibition at 10 µM: read-out: PDE5 % inhibition at 10 μm
PDE11A = PDE11A (Homo sapiens, UniProt Q9HCR9); experiment: PDE selectivity array, PDE11A with cGMP and cAMP as substrates; settings: for IC50: 10 concentrations, double replicates
PDE2A = PDE2A (Homo sapiens, UniProt O00408); experiment: PDE selectivity array, PDE2A with cGMP as substrate; settings: for inhibition of cGMP hydrolysis by PDE2A (in words): at concentrations up to 50 μM
PDE9A = PDE9A (Homo sapiens, UniProt O76083); experiment: PDE selectivity array, PDE9A with cGMP as substrate; settings: for inhibition of cGMP hydrolysis by PDE9A (in words): at concentrations up to 50 μM
PDE3A = PDE3A (Homo sapiens, UniProt Q14432); experiment: PDE selectivity array, PDE3A with cGMP as substrate; settings: for inhibition of cGMP hydrolysis by PDE3A (in words): at concentrations up to 50 μM
PDE1A = PDE1A (Homo sapiens, UniProt P54750); experiment: PDE selectivity array, PDE1A with cGMP as substrate; settings: for inhibition of cGMP hydrolysis by PDE1A (in words): at concentrations up to 50 μM
PDE10A = PDE10A (Homo sapiens, UniProt Q9Y233); experiment: PDE selectivity array, PDE10A with cGMP as substrate; settings: for inhibition of cGMP hydrolysis by PDE10A (in words): at concentrations up to 50 μM
[1] = IC50 PDE11A cAMP, substrate cAMP
[2] = IC50 PDE11A cGMP, substrate cGMP

Chain of PDE9A (O76083 whole entry, species assumed): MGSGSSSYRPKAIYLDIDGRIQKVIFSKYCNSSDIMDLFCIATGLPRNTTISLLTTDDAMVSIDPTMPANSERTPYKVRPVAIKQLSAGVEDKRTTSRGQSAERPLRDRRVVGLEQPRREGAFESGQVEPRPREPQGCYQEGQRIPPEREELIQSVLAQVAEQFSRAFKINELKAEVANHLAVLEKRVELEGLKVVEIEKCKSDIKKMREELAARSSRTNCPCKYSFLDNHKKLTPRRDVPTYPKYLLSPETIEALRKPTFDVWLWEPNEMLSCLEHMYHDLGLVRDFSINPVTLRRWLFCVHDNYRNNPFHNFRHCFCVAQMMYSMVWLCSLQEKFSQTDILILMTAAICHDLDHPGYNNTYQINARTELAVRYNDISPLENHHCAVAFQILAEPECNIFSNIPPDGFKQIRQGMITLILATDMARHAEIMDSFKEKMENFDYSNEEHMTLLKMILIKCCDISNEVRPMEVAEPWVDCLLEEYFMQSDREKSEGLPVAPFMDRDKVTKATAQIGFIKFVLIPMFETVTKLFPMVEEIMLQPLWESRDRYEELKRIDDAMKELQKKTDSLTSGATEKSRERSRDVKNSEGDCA
Chain of PDE1A (P54750 whole entry, species assumed): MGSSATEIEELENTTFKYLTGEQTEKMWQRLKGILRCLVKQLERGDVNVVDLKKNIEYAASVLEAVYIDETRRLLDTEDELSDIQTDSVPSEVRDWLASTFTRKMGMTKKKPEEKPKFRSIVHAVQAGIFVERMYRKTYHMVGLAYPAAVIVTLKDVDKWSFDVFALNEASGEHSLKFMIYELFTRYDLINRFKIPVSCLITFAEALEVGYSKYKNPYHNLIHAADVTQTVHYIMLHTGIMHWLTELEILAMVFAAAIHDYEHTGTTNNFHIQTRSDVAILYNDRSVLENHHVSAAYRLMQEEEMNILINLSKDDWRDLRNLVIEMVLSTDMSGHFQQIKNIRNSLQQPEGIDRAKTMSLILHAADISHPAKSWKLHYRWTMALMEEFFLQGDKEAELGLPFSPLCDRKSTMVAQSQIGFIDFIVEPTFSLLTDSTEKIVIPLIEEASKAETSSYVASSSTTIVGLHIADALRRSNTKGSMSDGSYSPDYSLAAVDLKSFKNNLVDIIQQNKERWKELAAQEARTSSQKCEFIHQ
Chain of PDE3A (Q14432 whole entry, species assumed): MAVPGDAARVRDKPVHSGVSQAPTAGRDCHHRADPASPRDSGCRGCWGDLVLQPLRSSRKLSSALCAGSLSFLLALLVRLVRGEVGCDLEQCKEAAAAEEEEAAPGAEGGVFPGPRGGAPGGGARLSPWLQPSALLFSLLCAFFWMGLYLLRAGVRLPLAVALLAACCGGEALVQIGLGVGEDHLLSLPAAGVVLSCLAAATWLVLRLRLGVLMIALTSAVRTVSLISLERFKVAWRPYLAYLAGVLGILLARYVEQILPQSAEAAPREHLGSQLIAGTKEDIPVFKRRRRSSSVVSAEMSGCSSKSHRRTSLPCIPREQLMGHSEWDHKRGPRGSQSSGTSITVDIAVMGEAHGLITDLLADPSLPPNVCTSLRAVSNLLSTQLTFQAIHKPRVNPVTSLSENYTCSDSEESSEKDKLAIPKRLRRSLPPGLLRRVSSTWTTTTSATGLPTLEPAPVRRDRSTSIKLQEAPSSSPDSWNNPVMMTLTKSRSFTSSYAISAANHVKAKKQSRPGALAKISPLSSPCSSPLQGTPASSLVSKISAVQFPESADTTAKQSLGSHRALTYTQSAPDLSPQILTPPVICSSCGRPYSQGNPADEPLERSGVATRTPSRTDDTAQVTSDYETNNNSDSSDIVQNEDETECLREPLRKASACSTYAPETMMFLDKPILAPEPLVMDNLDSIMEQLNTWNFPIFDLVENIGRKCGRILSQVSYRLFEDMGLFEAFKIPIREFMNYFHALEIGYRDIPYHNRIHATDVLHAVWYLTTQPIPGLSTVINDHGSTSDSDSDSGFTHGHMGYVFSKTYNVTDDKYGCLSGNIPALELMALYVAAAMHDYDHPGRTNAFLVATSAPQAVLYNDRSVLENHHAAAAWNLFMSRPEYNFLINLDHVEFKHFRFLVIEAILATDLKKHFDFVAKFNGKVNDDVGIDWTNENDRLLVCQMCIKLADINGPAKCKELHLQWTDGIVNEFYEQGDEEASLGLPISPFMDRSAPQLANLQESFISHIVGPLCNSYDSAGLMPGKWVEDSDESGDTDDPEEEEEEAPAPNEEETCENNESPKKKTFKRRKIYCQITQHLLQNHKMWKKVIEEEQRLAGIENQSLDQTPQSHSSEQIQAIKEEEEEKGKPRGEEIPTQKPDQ
Chain of PDE10A (Q9Y233 whole entry, species assumed): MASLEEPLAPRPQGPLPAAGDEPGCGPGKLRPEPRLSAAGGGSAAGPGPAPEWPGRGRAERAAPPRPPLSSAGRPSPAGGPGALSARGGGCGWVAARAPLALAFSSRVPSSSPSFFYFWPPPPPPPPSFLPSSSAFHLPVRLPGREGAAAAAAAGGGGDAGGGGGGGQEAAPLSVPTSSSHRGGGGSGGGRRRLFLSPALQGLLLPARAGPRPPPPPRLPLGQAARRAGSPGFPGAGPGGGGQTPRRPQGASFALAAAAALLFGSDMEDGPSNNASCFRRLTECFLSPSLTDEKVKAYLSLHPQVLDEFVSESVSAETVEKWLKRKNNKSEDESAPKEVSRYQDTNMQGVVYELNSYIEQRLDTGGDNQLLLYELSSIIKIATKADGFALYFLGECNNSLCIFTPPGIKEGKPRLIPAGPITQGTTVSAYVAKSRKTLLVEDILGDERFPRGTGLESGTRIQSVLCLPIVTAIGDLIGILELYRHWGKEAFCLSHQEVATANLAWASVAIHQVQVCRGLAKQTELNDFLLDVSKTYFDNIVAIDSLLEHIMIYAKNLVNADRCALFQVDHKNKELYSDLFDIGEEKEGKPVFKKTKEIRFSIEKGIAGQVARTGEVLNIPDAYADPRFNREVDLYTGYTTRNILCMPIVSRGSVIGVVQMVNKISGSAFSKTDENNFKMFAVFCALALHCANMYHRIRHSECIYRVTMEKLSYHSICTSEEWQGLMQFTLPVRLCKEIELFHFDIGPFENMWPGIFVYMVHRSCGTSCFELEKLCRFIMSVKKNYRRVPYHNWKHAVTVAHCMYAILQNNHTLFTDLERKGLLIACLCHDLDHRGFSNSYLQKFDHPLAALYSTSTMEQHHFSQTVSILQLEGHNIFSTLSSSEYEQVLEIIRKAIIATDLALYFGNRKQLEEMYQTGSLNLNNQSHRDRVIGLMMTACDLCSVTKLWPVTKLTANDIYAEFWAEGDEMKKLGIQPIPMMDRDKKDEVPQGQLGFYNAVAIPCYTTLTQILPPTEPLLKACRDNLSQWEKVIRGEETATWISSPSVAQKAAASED
Chain of PDE11A (Q9HCR9 whole entry, species assumed): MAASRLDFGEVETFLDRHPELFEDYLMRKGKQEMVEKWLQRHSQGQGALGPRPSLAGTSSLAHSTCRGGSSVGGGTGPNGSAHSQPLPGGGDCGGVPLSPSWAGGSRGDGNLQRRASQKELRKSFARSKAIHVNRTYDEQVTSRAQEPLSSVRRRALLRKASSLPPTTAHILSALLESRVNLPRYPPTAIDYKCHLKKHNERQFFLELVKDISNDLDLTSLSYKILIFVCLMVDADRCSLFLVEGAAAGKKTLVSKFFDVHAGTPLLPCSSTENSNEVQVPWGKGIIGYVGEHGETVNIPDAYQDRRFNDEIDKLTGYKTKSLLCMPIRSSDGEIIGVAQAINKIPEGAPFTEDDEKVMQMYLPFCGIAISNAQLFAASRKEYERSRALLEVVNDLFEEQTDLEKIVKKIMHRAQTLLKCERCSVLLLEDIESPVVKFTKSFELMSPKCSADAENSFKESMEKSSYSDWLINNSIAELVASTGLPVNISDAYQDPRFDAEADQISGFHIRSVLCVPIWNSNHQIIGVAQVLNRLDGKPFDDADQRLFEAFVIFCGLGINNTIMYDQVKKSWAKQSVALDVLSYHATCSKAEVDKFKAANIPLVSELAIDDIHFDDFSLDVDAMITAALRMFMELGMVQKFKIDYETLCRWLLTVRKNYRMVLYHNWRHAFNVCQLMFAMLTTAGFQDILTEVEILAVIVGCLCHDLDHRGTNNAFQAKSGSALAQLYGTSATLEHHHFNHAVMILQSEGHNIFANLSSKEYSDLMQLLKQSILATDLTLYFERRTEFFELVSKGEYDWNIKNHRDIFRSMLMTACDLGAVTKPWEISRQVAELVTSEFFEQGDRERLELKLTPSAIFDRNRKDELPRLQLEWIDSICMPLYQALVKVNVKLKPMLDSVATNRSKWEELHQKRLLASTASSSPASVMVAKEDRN

COC(=O)[C@H]1Cc2c([nH]c3ccccc23)[C@@H](c2ccc(Br)s2)N1 [Compound 1, (1S,3R) Methyl 1-(5-bromo-2-thienyl)-2,3,4,9-tetrahydro-1H-β-carboline-3-carboxylate]
inhibition at 10 µM (recombinant human PDE5): < 60%

COC(=O)[C@H]1Cc2c([nH]c3ccccc23)[C@H](c2ccc(Br)s2)N1 [Compound 2, (1R,3R) Methyl 1-(5-bromo-2-thienyl)-2,3,4,9-tetrahydro-1H-β-carboline-3-carboxylate]
inhibition at 10 µM (recombinant human PDE5): < 60%

COC(=O)[C@@H]1Cc2c([nH]c3ccccc23)[C@H](c2ccc(Br)s2)N1 [Compound 3, (1R,3S) Methyl 1-(5-bromo-2-thienyl)-2,3,4,9-tetrahydro-1H-β-carboline-3-carboxylate]
inhibition at 10 µM (recombinant human PDE5): < 60%

COC(=O)[C@@H]1Cc2c([nH]c3ccccc23)[C@@H](c2ccc(Br)s2)N1 [Compound 4, (1S,3S) Methyl 1-(5-bromo-2-thienyl)-2,3,4,9-tetrahydro-1H-β-carboline-3-carboxylate]
inhibition at 10 µM (recombinant human PDE5): < 60%

CCN1C(=O)[C@@H]2Cc3c([nH]c4ccccc34)[C@@H](c3ccc(Br)s3)N2C1=O [Compound 8, (5S,11aS) 5-(5-Bromo-2-thienyl)-2-ethyl-5,6,11,11a-tetrahydro-1H-imidazo[1′,5 ′:1,6]pyrido[3,4-b]indole-1,3(2H)-dione]
IC50 (PDE11A; [1]): 11.3 µM | IC50 (PDE11A; [2]): 7.8 µM | IC50 (PDE2A): > 50 µM | inhibition of cGMP hydrolysis by PDE2A (in words) (PDE2A): lacked the ability to inhibit cGMP hydrolysis | IC50 (PDE9A): > 50 µM | inhibition of cGMP hydrolysis by PDE9A (in words) (PDE9A): lacked the ability to inhibit cGMP hydrolysis | IC50 (PDE3A): > 50 µM | inhibition of cGMP hydrolysis by PDE3A (in words) (PDE3A): lacked the ability to inhibit cGMP hydrolysis | IC50 (PDE1A): > 50 µM | inhibition of cGMP hydrolysis by PDE1A (in words) (PDE1A): lacked the ability to inhibit cGMP hydrolysis | IC50 (recombinant human PDE5; read-out: PDE5 inhibition IC50, 10 concentrations, each with double replicates): 0.16 µM | IC50 (PDE10A): > 50 µM | inhibition of cGMP hydrolysis by PDE10A (in words) (PDE10A): lacked the ability to inhibit cGMP hydrolysis

CCCCN1C(=O)[C@H]2Cc3c([nH]c4ccccc34)[C@@H](c3ccc(Br)s3)N2C1=O [Compound 9, (5S,11aR) 5-(5-Bromo-2-thienyl)-2-butyl-5,6,11,11a-tetrahydro-1H-imidazo[1′,5 ′:1,6]pyrido[3,4-b]indole-1,3(2H)-dione]
IC50 (PDE11A; [1]): 4 µM | IC50 (PDE11A; [2]): 2.3 µM | Selectivity index IC50 (PDE11A/PDE5A) cGMP/cGMP (PDE11A; ratio of IC50 PDE11A to PDE5A, cGMP as substrate): 14 | IC50 (PDE2A): > 50 µM | inhibition of cGMP hydrolysis by PDE2A (in words) (PDE2A): lacked the ability to inhibit cGMP hydrolysis | IC50 (PDE9A): > 50 µM | inhibition of cGMP hydrolysis by PDE9A (in words) (PDE9A): lacked the ability to inhibit cGMP hydrolysis | IC50 (PDE3A): > 50 µM | inhibition of cGMP hydrolysis by PDE3A (in words) (PDE3A): lacked the ability to inhibit cGMP hydrolysis | IC50 (PDE1A): > 50 µM | inhibition of cGMP hydrolysis by PDE1A (in words) (PDE1A): lacked the ability to inhibit cGMP hydrolysis | IC50 (recombinant human PDE5): 0.17 µM | inhibition at 10 µM (recombinant human PDE5): 99% | IC50 (PDE10A): > 50 µM | inhibition of cGMP hydrolysis by PDE10A (in words) (PDE10A): lacked the ability to inhibit cGMP hydrolysis

CCCCN1C(=O)[C@H]2Cc3c([nH]c4ccccc34)[C@H](c3ccc(Br)s3)N2C1=O [Compound 10, (5R,11aR) 5-(5-Bromo-2-thienyl)-2-butyl-5,6,11,11a-tetrahydro-1H-imidazo[1′,5 ′:1,6]pyrido[3,4-b]indole-1,3(2H)-dione]
inhibition at 10 µM (recombinant human PDE5): < 60%

CCCCN1C(=O)[C@@H]2Cc3c([nH]c4ccccc34)[C@H](c3ccc(Br)s3)N2C1=O [Compound 11, (5R,11aS) 5-(5-Bromo-2-thienyl)-2-butyl-5,6,11,11a-tetrahydro-1H-imidazo[1′,5 ′:1,6]pyrido[3,4-b]indole-1,3(2H)-dione]
inhibition at 10 µM (recombinant human PDE5): < 60%

CCCCN1C(=O)[C@@H]2Cc3c([nH]c4ccccc34)[C@@H](c3ccc(Br)s3)N2C1=O [Compound 12, (5S,11aS) 5-(5-Bromo-2-thienyl)-2-butyl-5,6,11,11a-tetrahydro-1H-imidazo[1′,5 ′:1,6]pyrido[3,4-b]indole-1,3(2H)-dione]
IC50 (recombinant human PDE5): 0.47 µM | inhibition at 10 µM (recombinant human PDE5): 92%

CC(C)(C)N1C(=O)[C@H]2Cc3c([nH]c4ccccc34)[C@@H](c3ccc(Br)s3)N2C1=O [Compound 13, (5S,11aR) 5-(5-Bromo-2-thienyl)-2-tert-butyl-5,6,11,11a-tetrahydro-1H-imidazo[1′,5 ′:1,6]pyrido[3,4-b]indole-1,3(2H)-dione]
IC50 (recombinant human PDE5): 0.39 µM | inhibition at 10 µM (recombinant human PDE5): 97%

CC(C)(C)N1C(=O)[C@H]2Cc3c([nH]c4ccccc34)[C@H](c3ccc(Br)s3)N2C1=O [Compound 14, (5R,11aR) 5-(5-Bromo-2-thienyl)-2-tert-butyl-5,6,11,11a-tetrahydro-1H-imidazo[1′,5 ′:1,6]pyrido[3,4-b]indole-1,3(2H)-dione]
inhibition at 10 µM (recombinant human PDE5): < 60%

CC(C)(C)N1C(=O)[C@@H]2Cc3c([nH]c4ccccc34)[C@H](c3ccc(Br)s3)N2C1=O [Compound 15, (5R,11aS) 5-(5-Bromo-2-thienyl)-2-tert-butyl-5,6,11,11a-tetrahydro-1H-imidazo[1′,5 ′:1,6] pyrido[3,4-b]indole-1,3(2H)-dione]
inhibition at 10 µM (recombinant human PDE5): < 60%

CC(C)(C)N1C(=O)[C@@H]2Cc3c([nH]c4ccccc34)[C@@H](c3ccc(Br)s3)N2C1=O [Compound 16, (5S,11aS) 5-(5-Bromo-2-thienyl)-2-tert-butyl-5,6,11,11a-tetrahydro-1H-imidazo[1′,5 ′:1,6]pyrido[3,4-b]indole-1,3(2H)-dione]
IC50 (recombinant human PDE5): 1 µM

C=CCN1C(=O)[C@H]2Cc3c([nH]c4ccccc34)[C@@H](c3ccc(Br)s3)N2C1=O [Compound 17, (5S,11aR) 5-(5-Bromo-2-thienyl)-2-allyl-5,6,11,11a-tetrahydro-1H-imidazo[1′,5 ′:1,6]pyrido[3,4-b]indole-1,3(2H)-dione]
IC50 (recombinant human PDE5): 0.29 µM

C=CCN1C(=O)[C@H]2Cc3c([nH]c4ccccc34)[C@H](c3ccc(Br)s3)N2C1=O [Compound 18, (5R,11aR) 5-(5-Bromo-2-thienyl)-2-allyl-5,6,11,11a-tetrahydro-1H-imidazo[1′,5 ′:1,6]pyrido[3,4-b]indole-1,3(2H)-dione]
IC50 (recombinant human PDE5): 5.4 µM

C=CCN1C(=O)[C@@H]2Cc3c([nH]c4ccccc34)[C@H](c3ccc(Br)s3)N2C1=O [Compound 19, (5R,11aS) 5-(5-Bromo-2-thienyl)-2-allyl-5,6,11,11a-tetrahydro-1H-imidazo[1′,5 ′:1,6]pyrido[3,4-b]indole-1,3(2H)-dione]
inhibition at 10 µM (recombinant human PDE5): < 60%

C=CCN1C(=O)[C@@H]2Cc3c([nH]c4ccccc34)[C@@H](c3ccc(Br)s3)N2C1=O [Compound 20, (5S,11aS) 5-(5-Bromo-2-thienyl)-2-allyl-5,6,11,11a-tetrahydro-1H-imidazo[1′,5 ′:1,6]pyrido[3,4-b]indole-1,3(2H)-dione]
IC50 (recombinant human PDE5): 0.32 µM | inhibition at 10 µM (recombinant human PDE5): 97%

CCN1CC(=O)N2[C@H](c3ccc(Br)s3)c3[nH]c4ccccc4c3C[C@@H]2C1=O [Compound 23, (6S,12aR) 6-(5-Bromo-2-thienyl)-2-ethyl-2,3,6,7,12,12a-hexahydropyrazino[1′,2 ′:1,6]pyrido[3,4-b]indole-1,4-dione]
IC50 (recombinant human PDE5): 1.71 µM | inhibition at 10 µM (recombinant human PDE5): 81%

CCN1CC(=O)N2[C@H](c3ccc(Br)s3)c3[nH]c4ccccc4c3C[C@H]2C1=O [Compound 24, (6S,12aS) 6-(5-Bromo-2-thienyl)-2-ethyl-2,3,6,7,12,12a-hexahydropyrazino[1′,2 ′:1,6]pyrido[3,4-b]indole-1,4-dione]
IC50 (recombinant human PDE5): 1 µM | inhibition at 10 µM (recombinant human PDE5): 87%

COC(=O)c1cc2c([nH]c3ccccc32)c(-c2ccc(Br)s2)n1 [Compound 25, Methyl 1-(5-bromo-2-thienyl)-β-carboline-3-carboxylate]
PDE5 inhibition (in words) (recombinant human PDE5; SAR statement in text): no PDE5 inhibition | inhibition at 10 µM (recombinant human PDE5): < 60%

CN1CC(=O)N2[C@H](c3ccc4c(c3)OCO4)c3[nH]c4ccccc4c3C[C@@H]2C1=O [Tadalafil, tadalafil, reference compound]
IC50 (PDE2A): > 50 µM | inhibition of cGMP hydrolysis by PDE2A (in words) (PDE2A): lacked the ability to inhibit cGMP hydrolysis | IC50 (PDE9A): > 50 µM | inhibition of cGMP hydrolysis by PDE9A (in words) (PDE9A): lacked the ability to inhibit cGMP hydrolysis | IC50 (PDE3A): > 50 µM | inhibition of cGMP hydrolysis by PDE3A (in words) (PDE3A): lacked the ability to inhibit cGMP hydrolysis | IC50 (PDE1A): > 50 µM | inhibition of cGMP hydrolysis by PDE1A (in words) (PDE1A): lacked the ability to inhibit cGMP hydrolysis | IC50 (PDE10A): > 50 µM | inhibition of cGMP hydrolysis by PDE10A (in words) (PDE10A): lacked the ability to inhibit cGMP hydrolysis
